This note sets out measurements from patent US9238014B2, “Pharmaceutical composition for treating alcohol dependency” (priority 2009, dated 2016).

Structures can show the parent of a compound that is named as a salt.

The subject of the experiment is male mouse of the C57BL/6J line. Briefly: Alcohol/water preference (alcohol consumption) after forced alcoholization in mice. The experiment is classed as in vivo. Also on record: key to Alcohol/Water preference index (Pref.), Mean / Alcohol/Water preference index (Pref), Mean: Pref = (Alcohol−Water)/(Alcohol+Water); >0 alcohol, <0 water preference. To be noted: for Alcohol/Water preference index (Pref), Mean: Example 2, Table D, n = 9; for Alcohol/Water preference index (Pref.), Mean: Experiment A, single agent 1 mg/kg injected before session, n = 6; for effect on alcoholic preference (in words): on this model and at the doses used, vs saline control, significant if p≦0.05; for effect on alcohol consumption (in words): same model and same doses, administered separately or in combination as stated. As to the method: All the products used for the treatments are dissolved in saline (0.9% NaCl) so that the injection volume is 10 ml/kg of body weight.
The animals are kept in their cage throughout the experiment. They are subjected to forced alcoholization, with 10% alcohol as the only drink, for 15 days. They are then returned to normal conditions with water to drink.
Different groups of mice are constituted depending on the treatments: controls (injected with saline), prazosin 1 mg/kg, cyproheptadine 1 mg/kg, prazosin 1 mg/kg+cyproheptadine 1 mg/kg, prazosin 0.5 mg/kg+cyproheptadine 1 mg/kg,
The tests begin 24 hours after forced alcoholization is stopped. They proceed during the first two hours of darkness (period of activity), during which the animals have access to a feeder with water and a feeder with alcohol. The amounts of water and of alcohol consumed are measured after said two hours.
Several sessions of measuring the consumption of water and of alcohol are carried out. For the first 2 sessions (S1-S2) the animals receive an injection of saline; they receive the treatments (prazosin, cyproheptadine, prazosin+cyproheptadine) or saline (for the control group) in the next sessions (T1, T2, T3). The treatments are carried out 10 minutes before each session.
The Alcohol/Water preference index (Pref.) is calculated as follows: Pref.=(Consumption Alcohol−Water)/(Consumption Alcohol+Water)
0<Pref.≦1: Preference for alcohol
Pref.=0: No preference alcohol vs water
−1≦Pref.<0: Preference for water (i.e. aversion to alcohol)
During the sessions for measuring alcohol consumption, the animals receive the treatments 30 minutes before said measurement.
The results are expressed in mean value and standard error of mean (SEM). The preference indices (Pref) of the treated groups are compared with that of the control group by the bilateral Student t-test for independent groups. The values shown (p vs Con) are the probabilities for the difference between treated group and control group being due to chance. A difference is regarded as statistically significant if p≦0.05.
The cyproheptadine/alfuzosin, cyproheptadine/terazosin and cyproheptadine/tamsulosin combinations were tested in experimental conditions identical to those described in example 1 above and using the same model.

[1] abbreviates: alpha1 antagonist alone 0.5 mg/kg, treatment session T1.
[2] abbreviates: alpha1 antagonist alone 0.5 mg/kg, treatment session T2.
Setting [3] is: alpha1 antagonist alone 0.5 mg/kg, treatment session T3.

As for `CN1CCC(=C2c3ccccc3C=Cc3ccccc32)CC1` [Cyproheptadine, 4-(5H-dibenzo[a,d]cyclohepten-5-ylidene)-1-methylpiperidine hydrochloride], the “effect on alcoholic preference (in words)” value is on record as “do not have a significant effect”. The “Alcohol/Water preference index (Pref), Mean” value (cyproheptadine alone 1 mg/kg, treatment session T1) is 0.91. In addition, where the note is “cyproheptadine alone 1 mg/kg, treatment session T2”, the “Alcohol/Water preference index (Pref), Mean” value is 0.76. Further, under “cyproheptadine alone 1 mg/kg, treatment session T3”, the “Alcohol/Water preference index (Pref), Mean” value is on record as 0.81. Also, the “Alcohol/Water preference index (Pref.), Mean” value (treatment session T1) amounted to 0.92. In addition, the “Alcohol/Water preference index (Pref.), Mean” value (treatment session T2) stood at 0.82. For the same molecule, the “Alcohol/Water preference index (Pref.), Mean” value (treatment session T3) amounted to 0.82. Moreover, the “effect on alcohol consumption (in words)” value (hydrochloride) is recorded as “do not have an effect”. The “effect on alcohol consumption (in words)” value (listed as cyproheptadine, hydrochloride) is given as “do not have any effect”.
For `CCOc1ccccc1OCCN[C@H](C)Cc1ccc(OC)c(S(N)(=O)=O)c1` [Tamsulosin, (R)-5-(2-(2-(2-ethoxyphenoxy)ethylamino)propyl)-2-methoxybenzenesulfonamide], the “effect on alcohol consumption (in words)” value is “do not have an effect”. Moreover, the “Alcohol/Water preference index (Pref), Mean” value under setting [1] amounted to 0.68. Besides, the “Alcohol/Water preference index (Pref), Mean” value under setting [2] came to 0.79. In addition, the “Alcohol/Water preference index (Pref), Mean” value under setting [3] is 0.77.
In the case of `COc1cc2nc(N3CCN(C(=O)c4ccco4)CC3)nc(N)c2cc1OC` [Prazosin, 2-[4-(2-furoyl)piperazin-1-yl]-6,7-dimethoxyquinazolin-4-amine], the “effect on alcoholic preference (in words)” value is recorded as “do not have a significant effect” and the “effect on alcohol consumption (in words)” value is given as “do not have any effect”. Further, under “treatment session T1”, the “Alcohol/Water preference index (Pref.), Mean” value is listed as 0.78. Further, the “Alcohol/Water preference index (Pref.), Mean” value (treatment session T2) is reported as 0.57. Further, the “Alcohol/Water preference index (Pref.), Mean” value (treatment session T3) is 0.72.
`COc1cc2nc(N3CCN(C(=O)C4CCCO4)CC3)nc(N)c2cc1OC` (centres unmarked) [Terazosin, 6,7-dimethoxy-2-[4-(tetrahydrofuran-2-ylcarbonyl)piperazin-1-yl]quinazolin-4-amine]: the “effect on alcohol consumption (in words)” value is “do not have an effect”. Besides, the “Alcohol/Water preference index (Pref), Mean” value under setting [1] is reported as 0.64. Under setting [2], the “Alcohol/Water preference index (Pref), Mean” value is listed as 0.75. Further, under setting [3], the “Alcohol/Water preference index (Pref), Mean” value amounted to 0.72.
On the same counts, the results for `COc1cc2nc(N(C)CCCNC(=O)C3CCCO3)nc(N)c2cc1OC` (centres unmarked) [Alfuzosin, N-[3-[(4-amino-6,7-dimethoxy-quinazolin-2-yl)-methyl-amino]propyl]tetrahydrofuran-2-carboxamide] are “do not have an effect”, 0.59, 0.62 and 0.63.
